Experimental data reported in US12338214B2, “Bexarotene derivatives and their use in treating cancer” (DJ THERAPEUTICS LLC, priority 2018, dated 2025).

Key:
MV4;11 cells = assay: Cell count activity in MV4;11 cells; type: cell-based, human; conditions: 5 days, FIG. 5
Procedure: (§1) NB4 cells or MV4;11 cells were grown in RPMI, 10% fetal bovine serum and plated at a density of 25,000 cells/mL in presence or absence of compound of the disclosure (dissolved in DMSO) for 5 days. Cells were counted manually on a light microscope using a hemocytometer and Trypan blue exclusion or on the Nexcelom Cellometer Auto 2000 using Cellometer Viastain AOPI staining solution (Nexcelom CS2-0106).

NB4 cells = assay: Cell count activity in NB4 cells; type: cell-based, human; conditions: 5 days, FIG. 4
Procedure: as §1

Compound | reduction in cell counts (MV4;11 cells) | reduction in cell counts (NB4 cells)
CC1=C(/C=C/C(C)=C/C=C/C(C)=C/C(=O)O)C(C)(C)CCC1 [ATRA, all-trans retinoic acid] | dose dependent reduction in cell counts | –
C=C(c1ccc(C(=O)O)cc1)c1cc2c(cc1C)C(C)(C)CCC2(C)C [bexarotene] | – | dose dependent reduction in cell counts
